For eleven compounds, Kd, EC50 and Ki results are on record in doi:10.1101/2024.09.26.610356v2 (biorxiv, 2024).

Experiment [1] addresses T1, human triosephosphate isomerase (TPI) (Homo sapiens, UniProt P60174). The experiment is described as follows: label-free MST. Type of experiment: binding.
The target in experiment [2] is T1, human triosephosphate isomerase (TPI). As to the kind of experiment: GAPDH-coupled kinetic assay, dose response. Type of experiment: biochemical.
Experiment [3] has the same target. The experiment is described as follows: Michaelis-Menten kinetics, GAPDH-coupled assay. Type of experiment: biochemical.
Experiment [4] concerns the target T2, human glucose-6-phosphate isomerase (GPI) (Homo sapiens, UniProt P06744). As to the kind of experiment: label-free MST. Type of experiment: binding.
Experiment [5] addresses T2, human glucose-6-phosphate isomerase (GPI). The experiment is described as follows: Michaelis-Menten kinetics, G6PDH-coupled assay. The experiment is classed as biochemical.
Experiment [6] has the same target. The experiment is described as follows: G6PDH-coupled kinetic assay, dose response. Type of experiment: biochemical.

T1 sequence (P60174 whole entry): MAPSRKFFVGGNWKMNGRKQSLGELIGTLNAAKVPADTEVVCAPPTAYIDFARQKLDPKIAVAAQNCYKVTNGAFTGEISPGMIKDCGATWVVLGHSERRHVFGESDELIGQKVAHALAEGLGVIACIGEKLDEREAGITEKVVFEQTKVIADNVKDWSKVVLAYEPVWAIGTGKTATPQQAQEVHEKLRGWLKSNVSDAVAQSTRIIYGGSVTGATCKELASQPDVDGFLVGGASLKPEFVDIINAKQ

On to `O=P(O)(O)OC[C@H](O)CO` [Glycerol-3-phosphate], for which, in experiment [1], binding was characterised by a dissociation constant (Kd) of 6.79 ± 2.3 mM. The compound further registered an EC50 in experiment [2] of 8.65 ± 1.49 mM. Moreover, the Ki in experiment [3] came to 2.04 mM.
Compound `O=C(CO)COP(=O)(O)O` [Dihydroxyacetone phosphate] showed a Kd in experiment [4] of 17.5 ± 0.98 mM. For the same compound, the inhibitory constant (Ki) in experiment [5] was 4.47 mM. The same compound yielded an EC50 in experiment [6] of 8.24 ± 1.94 mM.
With `O=C(O)C(=O)O` [Oxalate], in experiment [1], the dissociation constant (Kd) came to 19.1 ± 1.38 mM. In experiment [2], this compound displayed an EC50 of 12.6 ± 0.76 mM. The Ki in experiment [3] was 27.3 mM.
On to `C/C(=C/C(=O)O)C(=O)O` [Citraconate], for which the affinity in experiment [4], expressed as Kd, was 20.1 ± 2.03 mM. In addition, the affinity in experiment [5] corresponds to a Ki of 2.17 mM. In experiment [6], this compound came in with an EC50 of 8.05 ± 2.34 mM.
`Nc1ncnc2c1ncn2[C@@H]1O[C@H](COP(=O)(O)OP(=O)(O)O)[C@@H](O)[C@H]1O` [ADP] gave a Kd in experiment [4] of 19.3 ± 0.96 mM. The same compound returned a Ki in experiment [5] of 3.97 mM. A half-maximal response in experiment [6] (EC50) required 8.66 ± 1.37 mM.
On to `NO` [Hydroxylamine], for which the affinity in experiment [5] corresponds to a Ki of 21.1 mM. The same compound gave an EC50 in experiment [6] of 14.6 ± 1.99 mM.
In experiment [4], `C=C(OP(=O)(O)O)C(=O)O` [Phosphoenolpyruvate] came in with a Kd of 11.1 ± 1.44 mM. The affinity in experiment [5] corresponds to a Ki of 5.61 mM. For the same compound, the EC50 in experiment [6] worked out at 11.8 ± 1.33 mM.
In experiment [1], `O=P(O)(O)OC(CO)CO` [Glycerol-2-phosphate] registered a Kd of 5.31 ± 1.07 mM. Moreover, the EC50 in experiment [2] worked out at 7.31 ± 1.22 mM. This compound yielded an inhibition constant (Ki) in experiment [3] of 1.89 mM.
`NCCc1c[nH]cn1` [Histamine]: binding in experiment [4] was put at a Kd of 13.1 ± 0.64 mM. Besides, in experiment [5], the affinity corresponds to a Ki of 9.25 mM. In experiment [6], this compound showed an EC50 of 7.35 ± 1.26 mM.
In the case of `CC(C(=O)O)C(=O)O` [Methylmalonate], the Kd in experiment [1] amounted to 12.2 ± 1.9 mM. Moreover, the EC50 in experiment [2] was 16.3 ± 2.54 mM. The compound further showed a Ki in experiment [3] of 17.3 mM.
As for `O=C(O)/C=C\C(=O)O` [Maleate], in experiment [4], the Kd is 14.4 ± 2.07 mM. This compound came in with a Ki in experiment [5] of 7.15 mM. The same compound displayed an EC50 in experiment [6] of 9.48 ± 2.85 mM.

As a reminder, the Kd is a measure of binding affinity in units of concentration. A lower Kd goes with tighter binding. Usually EC50 stands for the concentration that produces a half-maximal response. The term Ki denotes a measure of affinity in units of concentration, obtained from inhibition or displacement. Read a low Ki as a stronger hold on the target.
